The numbers were not newly measured in publication PMC4104431 (Nuclear medicine and biology, 2014), which cites them from elsewhere.

Series [1] addresses CXCR4 (Homo sapiens, UniProt P61073).

CXCR4, sequence (P61073 whole entry): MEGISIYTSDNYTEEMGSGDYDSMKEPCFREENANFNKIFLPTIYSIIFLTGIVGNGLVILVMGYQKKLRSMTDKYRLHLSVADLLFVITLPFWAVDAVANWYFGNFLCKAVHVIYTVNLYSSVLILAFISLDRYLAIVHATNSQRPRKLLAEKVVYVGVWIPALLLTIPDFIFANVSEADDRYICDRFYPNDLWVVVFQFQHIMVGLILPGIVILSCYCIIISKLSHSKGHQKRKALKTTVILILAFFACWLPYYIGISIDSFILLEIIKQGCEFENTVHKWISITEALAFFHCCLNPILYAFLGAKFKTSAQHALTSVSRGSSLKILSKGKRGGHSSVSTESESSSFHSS

Regarding `c1ccc(CNCc2ccc(CN3CCCNCCNCCCNCC3)cc2)nc1` [AMD3465], the Metabolic stability entry was “metabolically stable”.

Regarding `c1cc(CN2CCCNCCNCCCNCC2)ccc1CN1CCCNCCNCCCNCC1` [AMD3100], the Metabolic stability entry is given as “metabolically stable”. Also, the “Fold increase in affinity for CXCR4 when bound to Cu(II)” value in series [1] is listed as 7 fold.
